Consider 13 molecules from PubChem BioAssay (NCI).

Structures are written as SMILES.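 Test compounds were applied to cells in 96-well plates for 48 hours at 5 doses. The concentration for 50% growth inhibition is given as GI50. TGI: total growth inhibition.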

Some test systems named below: UACC-62 melanoma; BT-549 breast; UO-31 renal; MCF7 breast; SK-MEL-5 melanoma; 786-0 renal; SK-MEL-2 melanoma; KM12 colon; HCT-116 colon; EKVX NSCLC.
Common to all, as to experiment: growth of human tumour cells (NCI), 48 h

For the molecule `CSC(=S)NN=C1CCCCC1`, the TGI in the assay on UACC-62 melanoma is 38 µM; with BT-549 breast it was > 100 µM; with UO-31 renal, > 100 µM; with MCF7 breast, > 100 µM; in the assay with SK-MEL-5 melanoma it was 37.7 µM; in the assay on 786-0 renal, > 100 µM. Besides, the TGI in the assay on SK-MEL-2 melanoma, in the assay with KM12 colon, with HCT-116 colon and in the assay with EKVX NSCLC was > 100 µM throughout.

Take `CCOC(=O)C(=Cc1ccc(Br)cc1)C(=O)OCC`: the GI50 in the assay on UACC-62 melanoma is 1.39 µM; in the assay on BT-549 breast, 1.49 µM; in the assay with UO-31 renal it was 1.57 µM; in the assay on MCF7 breast, 1.66 µM; with SK-MEL-5 melanoma it was 1.65 µM; with 786-0 renal, 2.01 µM. Besides, the GI50 with SK-MEL-2 melanoma was 2.02 µM; with KM12 colon, 1.76 µM; in the assay on HCT-116 colon, 1.4 µM; with EKVX NSCLC, 1.88 µM. The TGI with UACC-62 melanoma was 3.29 µM; with BT-549 breast, 3.11 µM; in the assay on UO-31 renal it was 3.34 µM; with MCF7 breast it was 6.67 µM; with SK-MEL-5 melanoma, 3.12 µM; with 786-0 renal it was 3.85 µM. Moreover, the TGI with SK-MEL-2 melanoma came out at 4.39 µM; in the assay with KM12 colon, 3.66 µM; in the assay on HCT-116 colon, 2.92 µM; in the assay with EKVX NSCLC, 4.64 µM.

On to `C=CC1=C(C)C2=NC1=CC1=NC(=C(CC)/C1=C/O)C=C1C=C3C(=O)C(C(=O)OC)C(=C4NC(=C2)C(C)C4CCC(=O)OC/C=C(\C)CCCC(C)CCCC(C)CCCC(C)C)C3=N1` (stereo not given) (tested in a mixture with another compound), for which the TGI in the assay with UACC-62 melanoma, in the assay with BT-549 breast, in the assay with UO-31 renal, in the assay on MCF7 breast, in the assay on SK-MEL-5 melanoma and in the assay on 786-0 renal was > 100 µM throughout. For the same molecule, the TGI with SK-MEL-2 melanoma, in the assay with KM12 colon, in the assay on HCT-116 colon and with EKVX NSCLC was > 100 µM throughout.

With `CC(=O)N1c2ccccc2C23CCN4CC5=CCOC(O)C(C5CC42)C13` (stereo not given), the TGI with UACC-62 melanoma, in the assay on BT-549 breast, with UO-31 renal, with MCF7 breast, with SK-MEL-5 melanoma and in the assay on 786-0 renal was > 100 µM each time. For the same molecule, the TGI in the assay with SK-MEL-2 melanoma, in the assay with KM12 colon, in the assay on HCT-116 colon and in the assay with EKVX NSCLC was > 100 µM throughout.

As for `O=C(Oc1ccc([N+](=O)[O-])cc1)N1CCC(C(O)(c2ccc3c(c2)OCO3)c2ccc3c(c2)OCO3)CC1`, the GI50 in the assay on UACC-62 melanoma, in the assay on BT-549 breast, in the assay on UO-31 renal, in the assay with MCF7 breast, with SK-MEL-5 melanoma and in the assay on 786-0 renal was > 100 µM in each case. For the same molecule, the GI50 in the assay on SK-MEL-2 melanoma, in the assay with KM12 colon, in the assay with HCT-116 colon and in the assay with EKVX NSCLC was > 100 µM each time. Further, the TGI with UACC-62 melanoma, in the assay on BT-549 breast, in the assay on UO-31 renal, in the assay on MCF7 breast, in the assay on SK-MEL-5 melanoma and with 786-0 renal was > 100 µM throughout. Also, the TGI in the assay with SK-MEL-2 melanoma, in the assay with KM12 colon, in the assay on HCT-116 colon and in the assay with EKVX NSCLC was > 100 µM each time.

In the case of `NC(C(=O)O)C(N)C(=O)O` (stereo not given), the TGI in the assay with UACC-62 melanoma, in the assay with BT-549 breast, in the assay with UO-31 renal, in the assay with MCF7 breast, in the assay with SK-MEL-5 melanoma and in the assay on 786-0 renal was > 100 µM in each case. Also, the TGI with SK-MEL-2 melanoma, in the assay on KM12 colon, in the assay with HCT-116 colon and in the assay on EKVX NSCLC was > 100 µM throughout.

As to `Cc1cc(N2CCN(C)CC2)nc(NC2CCCC(Nc3ccnc4cc(Cl)ccc34)C2)n1` (stereo not given), the GI50 was 1.8 µM in the assay with UACC-62 melanoma; 2.08 µM in the assay on BT-549 breast; 1.49 µM in the assay with UO-31 renal; 1.39 µM in the assay on MCF7 breast; 1.76 µM in the assay with SK-MEL-5 melanoma; 1.81 µM in the assay on 786-0 renal. Moreover, the GI50 is 1.99 µM in the assay with SK-MEL-2 melanoma, 2.89 µM in the assay with KM12 colon, 1.46 µM with HCT-116 colon and 2.81 µM in the assay on EKVX NSCLC. The TGI came to 3.54 µM with UACC-62 melanoma; 5.76 µM in the assay on BT-549 breast; 2.86 µM with UO-31 renal; 4.45 µM in the assay on MCF7 breast; 3.17 µM with SK-MEL-5 melanoma; 4.15 µM in the assay with 786-0 renal. The TGI with SK-MEL-2 melanoma came to 4.38 µM; in the assay with KM12 colon it was 10.1 µM; in the assay on HCT-116 colon, 3.74 µM; in the assay with EKVX NSCLC, 12.5 µM.

With `O=c1cccc(C#CCCCCOC2CCCO2)o1` (stereo not given), the GI50 in the assay on UACC-62 melanoma is 15.9 µM; in the assay with BT-549 breast it was 3.35 µM; with UO-31 renal, 9.07 µM; in the assay with MCF7 breast, 8.73 µM; in the assay on SK-MEL-5 melanoma it was 7.47 µM; with 786-0 renal, 4.03 µM. The GI50 with SK-MEL-2 melanoma was 12.7 µM; in the assay on KM12 colon it was 20.4 µM; in the assay with HCT-116 colon, 6.39 µM; in the assay with EKVX NSCLC it was 8.27 µM. In addition, the TGI in the assay on UACC-62 melanoma is > 56.8 µM; with BT-549 breast, 26.4 µM; in the assay on UO-31 renal, > 57.6 µM; in the assay with MCF7 breast, > 100 µM; in the assay on SK-MEL-5 melanoma, > 16.4 µM; in the assay on 786-0 renal, 23.6 µM. Also, the TGI was > 50.4 µM with SK-MEL-2 melanoma, > 45.8 µM in the assay with KM12 colon, > 23.2 µM in the assay on HCT-116 colon and 39 µM in the assay with EKVX NSCLC.

Take `O=C1Nc2ccccc2SC1C1SC(=S)N(Cc2ccccc2)C1=O` (stereo not given): the GI50 with UACC-62 melanoma was 10.6 µM; with BT-549 breast, 5.71 µM; in the assay on UO-31 renal, 5.63 µM; in the assay with MCF7 breast it was 1.21 µM; with SK-MEL-5 melanoma it was 13.7 µM; in the assay on 786-0 renal it was 5.06 µM. For the same molecule, the GI50 in the assay on SK-MEL-2 melanoma is 18.6 µM; in the assay on KM12 colon it was 0.458 µM; in the assay on HCT-116 colon it was 2.45 µM; with EKVX NSCLC, 21.7 µM. Also, the TGI is 23.3 µM in the assay with UACC-62 melanoma; 22.3 µM with BT-549 breast; 22.8 µM in the assay with UO-31 renal; 14.4 µM in the assay on MCF7 breast; 29.3 µM in the assay with SK-MEL-5 melanoma; 16.5 µM with 786-0 renal. Besides, the TGI came to 37.4 µM in the assay on SK-MEL-2 melanoma, 1.99 µM in the assay on KM12 colon, 9.28 µM in the assay on HCT-116 colon and 53.2 µM in the assay on EKVX NSCLC.

Take `COc1cc2cc(C(=O)O)[nH]c2cc1OCc1ccccc1`: the GI50 in the assay with UACC-62 melanoma is > 100 µM; with BT-549 breast it was > 100 µM; in the assay on UO-31 renal it was > 100 µM; with MCF7 breast it was 93.2 µM; with SK-MEL-5 melanoma it was 80.8 µM; with 786-0 renal, > 100 µM. Further, the GI50 was 44.9 µM in the assay with SK-MEL-2 melanoma, > 100 µM in the assay with KM12 colon, > 100 µM with HCT-116 colon and > 100 µM in the assay on EKVX NSCLC. Besides, the TGI with UACC-62 melanoma, in the assay with BT-549 breast, in the assay with UO-31 renal, in the assay on MCF7 breast, in the assay with SK-MEL-5 melanoma and in the assay with 786-0 renal was > 100 µM each time. Further, the TGI with SK-MEL-2 melanoma, in the assay on KM12 colon, in the assay with HCT-116 colon and in the assay on EKVX NSCLC was > 100 µM throughout.

Turning to `c1ccc(-c2cc(-c3cc(-c4ccccn4)[nH]n3)n[nH]2)nc1`, the TGI with UACC-62 melanoma was > 100 µM; in the assay on BT-549 breast, > 100 µM; with UO-31 renal, 73.2 µM; in the assay with MCF7 breast, > 100 µM; with SK-MEL-5 melanoma it was > 100 µM; in the assay on 786-0 renal, > 100 µM. In addition, the TGI in the assay on SK-MEL-2 melanoma, with KM12 colon, in the assay with HCT-116 colon and in the assay with EKVX NSCLC was > 100 µM each time.

For `O=C1/C(=C\c2ccccc2)c2ccccc2N1Cc1ccccc1`, the TGI in the assay with UACC-62 melanoma turned out to be 14.3 µM; in the assay with BT-549 breast it was 14.2 µM; in the assay with UO-31 renal it was 15.8 µM; in the assay with MCF7 breast it was 12.3 µM; in the assay on SK-MEL-5 melanoma, 15.8 µM; in the assay with 786-0 renal, 23 µM. For the same molecule, the TGI in the assay on SK-MEL-2 melanoma was found to be 17.1 µM; with KM12 colon, 13.9 µM; in the assay on HCT-116 colon, 12.4 µM; in the assay on EKVX NSCLC it was 17.1 µM.

Take `Cc1cc(NC(=O)CCc2ccc(N3C(N)=NC(N)=NC3(C)C)cc2)ccc1S(=O)(=O)F`: the GI50 in the assay on UACC-62 melanoma was 0.14 µM; in the assay with BT-549 breast, 6.53 µM; with UO-31 renal, > 100 µM; in the assay with MCF7 breast, 0.115 µM; with SK-MEL-5 melanoma, 0.125 µM; in the assay on 786-0 renal, 0.291 µM. Also, the GI50 in the assay on SK-MEL-2 melanoma is > 55.9 µM; in the assay with KM12 colon, 0.338 µM; in the assay with HCT-116 colon, 0.62 µM; in the assay with EKVX NSCLC, 0.884 µM. Further, the TGI in the assay with UACC-62 melanoma was > 100 µM; in the assay on BT-549 breast, > 91.9 µM; in the assay on UO-31 renal, > 100 µM; in the assay with MCF7 breast it was > 25.1 µM; with SK-MEL-5 melanoma, 19.1 µM; in the assay with 786-0 renal, > 100 µM. Also, the TGI with SK-MEL-2 melanoma is > 100 µM; in the assay with KM12 colon, > 63.7 µM; in the assay on HCT-116 colon, > 100 µM; in the assay with EKVX NSCLC it was > 100 µM.
